The text below walks through data of patent publication US10844013B2, “Phenyl amino piperidine mTORC inhibitors and uses thereof” (Navitor Pharmaceuticals, Inc., priority 2016, dated 2020).

Structures can show the parent of a compound that is named as a salt. Where two headings read alike, the source gives them in different places.

Assay [1] relates to pS6K1 (p-p70 S6 Kinase (Thr389)) in MCF-7 cells. The assay is described as follows: AlphaLISA Ultra pS6K1 assay. Type of assay: cell-based. To be noted: 2 hours compound incubation. The procedure, abridged:
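MCF-7 cells seeded 20–24 h, medium refreshed 2 h, then treated 2 h with compound (0.5% DMSO final). Lysates probed for Thr389-phosphorylated p70 S6K by AlphaLISA Ultra, 2 h acceptor then 2 h donor bead incubation, read on a multimode reader.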
In general terms: In Alpha technology, singlet oxygen from a donor bead excites a nearby acceptor bead.

The test system of assay [2] is pAKT (p-Akt 1/2/3 (Ser473)) in MCF-7 cells. The assay is described as follows: AlphaLISA Ultra pAKT assay. Type of assay: cell-based. In short, it runs like this: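 MCF-7 cells seeded 20-24 h, medium refreshed for 2 h, then treated with compounds for 2 h at 0.5% final DMSO. Lysates frozen at −80 °C, then pAKT detected by AlphaLISA with acceptor and donor beads, 2 h each.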

Setting [3] is: Homo sapiens, MCF7, 2 hours compound incubation.

Regarding `Cc1nc(C)c(C(=O)N2CCN(c3ccccc3)[C@H](CO)C2)c(C)c1NC1CCN(c2ncccc2Cl)CC1` [I-165, [(2S)-4-(5-{[1-(3-chloropyridin-2-yl)piperidin-4-yl]amino}-2,4,6-trimethyl-pyridine-3-carbonyl)-1-phenyl-piperazin-2-yl]MeOH], the IC50 (usually the concentration needed to halve the response being measured) is 0.01 to 1 µM in assay [1] (read-out: pS6K1 in MCF7: IC50) and greater than 10 µM in assay [2] (2 hours compound incubation, read-out: pAKT in MCF7: IC50).
In the case of `Cc1cc(C)c(C(=O)N2CCN(c3ccccc3S(N)(=O)=O)CC2)cc1N[C@H]1CCN(c2ccccc2C#N)C[C@H]1C` [I-169, 2-(4-(5-(((3R,4S)-1-(2-cyanophenyl)-3-methylpiperidin-4-yl)amino)-2,4-dimethylbenzoyl)piperazin-1-yl)benzenesulfonamide], the IC50 in assay [1] (Homo sapiens, MCF7, 2 h) is 1 to 3 µM; in assay [2] (setting [3]), greater than 10 µM.
On the same counts, the results for `Cc1cc(C)c(C(=O)N2CCN(c3ccccc3S(N)(=O)=O)CC2)cc1N[C@@H]1CCN(c2ccccc2C#N)C[C@H]1C` [I-170, 2-(4-(5-(((3R,4R)-1-(2-cyanophenyl)-3-methylpiperidin-4-yl)amino)-2,4-dimethylbenzoyl)piperazin-1-yl)benzenesulfonamide] are 0.01 to 1 µM and greater than 10 µM.
For `Cc1cc(C(F)(F)F)c(NC2CCN(c3ccccc3C#N)CC2)cc1C(=O)N1CCN(c2cccnc2S(N)(=O)=O)CC1` [I-172, 3-(4-(5-((1-(2-cyanophenyl)piperidin-4-yl)amino)-2-methyl-4-(trifluoromethyl)benzoyl)piperazin-1-yl)pyridine-2-sulfonamide], in that order: 3 to 5 µM and greater than 10 µM.
On the same counts, the results for `Cc1cc(C)c(C(=O)N2CCN(c3c(F)cc(F)cc3S(N)(=O)=O)CC2)cc1NC1CCN(c2ccccc2C#N)CC1` [I-174, 2-(4-(5-((1-(2-cyanophenyl)piperidin-4-yl)amino)-2,4-dimethylbenzoyl)piperazin-1-yl)-3,5-difluorobenzenesulfonamide] are 0.01 to 1 µM and greater than 10 µM.
`Cc1cc(C)c(C(=O)N2CCN(c3cccnc3[S@](C)(=N)=O)CC2)c(C)c1NC1CCN(c2ncccc2Cl)CC1` [I-175, (R)-(3-(4-(3-((1-(3-chloropyridin-2-yl)piperidin-4-yl)amino)-2,4,6-trimethylbenzoyl)piperazin-1-yl)pyridin-2-yl)(imino)(methyl)-λ^6-sulfanone Trifluoroacetate Salt]: the IC50 in assay [1] (Homo sapiens, MCF7, 2 h) was 0.01 to 1 µM; in assay [2] (setting [3]), greater than 10 µM.
On the same counts, the results for `Cc1cc(C)c(C(=O)N2CCN(c3nnco3)[C@H](CO)C2)cc1NC1CCN(c2ccccc2C#N)CC1` [I-177, (S)-2-(4-((5-(3-(hydroxymethyl)-4-(1,3,4-oxadiazol-2-yl)piperazine-1-carbonyl)-2,4-dimethylphenyl)amino)piperidin-1-yl)benzonitrile] are 1 to 3 µM and greater than 10 µM.
Take `Cc1cc(C)c(C(=O)N2CCN(c3ncccc3S(N)(=O)=O)CC2)c(C)c1N[C@H]1CCN(c2ccccc2C#N)C[C@H]1C` [I-178, 2-(4-(3-(((3R,4S)-1-(2-cyanophenyl)-3-methylpiperidin-4-yl)amino)-2,4,6-trimethylbenzoyl)piperazin-1-yl)pyridine-3-sulfonamide]: the IC50 was 0.01 to 1 µM in assay [1] (Homo sapiens, MCF7, 2 h) and greater than 10 µM in assay [2] (setting [3]).
In the case of `Cc1cc(C)c(C(=O)N2CCN(c3ncccc3S(N)(=O)=O)CC2)c(C)c1N[C@@H]1CCN(c2ccccc2C#N)C[C@@H]1C` [I-179, 2-(4-(3-(((3S,4R)-1-(2-cyanophenyl)-3-methylpiperidin-4-yl)amino)-2,4,6-trimethylbenzoyl)piperazin-1-yl)pyridine-3-sulfonamide], the IC50 was 0.01 to 1 µM in assay [1] (Homo sapiens, MCF7, 2 h) and greater than 10 µM in assay [2] (setting [3]).
On the same counts, the results for `Cc1cc(C)c(C(=O)N2CCN(c3ncccc3S(N)(=O)=O)CC2)c(C)c1N[C@@H]1CCN(c2ccccc2C#N)C[C@H]1C` [I-180, 2-(4-(3-(((3R,4R)-1-(2-cyanophenyl)-3-methylpiperidin-4-yl)amino)-2,4,6-trimethylbenzoyl)piperazin-1-yl)pyridine-3-sulfonamide] are 0.01 to 1 µM and greater than 10 µM.
`Cc1cc(C)c(C(=O)N2CCN(c3ncccc3S(N)(=O)=O)CC2)c(C)c1N[C@H]1CCN(c2ccccc2C#N)C[C@@H]1C` [I-181, 2-(4-(3-(((3S,4S)-1-(2-cyanophenyl)-3-methylpiperidin-4-yl)amino)-2,4,6-trimethylbenzoyl)piperazin-1-yl)pyridine-3-sulfonamide]: the IC50 in assay [1] (Homo sapiens, MCF7, 2 h) is 0.01 to 1 µM; in assay [2] (setting [3]) it was greater than 10 µM.
On the same counts, the results for `Cc1cc(C)c(C(=O)N2CCN(c3ccccn3)[C@H](CO)C2)cc1NC1CCN(c2ccccc2OC(F)(F)F)CC1` [I-183, (S)-(2,4-dimethyl-5-(1-(2-(trifluoromethoxy)phenyl)piperidin-4-ylamino)phenyl)(3-(hydroxymethyl)-4-(pyridin-2-yl)piperazin-1-yl)methanone] are 0.01 to 1 µM and greater than 10 µM.
For `Cc1cc(C)c(C(=O)N2CCN(c3ccccn3)[C@H](CO)C2)cc1NC1CCN(c2ccccc2OC(F)F)CC1` [I-184, (S)-(5-(1-(2-(difluoromethoxy)phenyl)piperidin-4-ylamino)-2,4-dimethylphenyl)(3-(hydroxymethyl)-4-(pyridin-2-yl)piperazin-1-yl)methanone], in that order: 0.01 to 1 µM and greater than 10 µM.
On the same counts, the results for `Cc1cc(C)c(C(=O)N2CCN(c3cccnc3S(N)(=O)=O)CC2)c(C)c1NC1CCN(c2ncccc2Cl)CC1` [I-185, 3-(4-(3-(1-(3-chloropyridin-2-yl)piperidin-4-ylamino)-2,4,6-trimethylbenzoyl)piperazin-1-yl)pyridine-2-sulfonamide] are 0.01 to 1 µM and greater than 10 µM.
`Cc1cc(C)c(C(=O)N2CCN(c3ncccc3S(N)(=O)=O)CC2)c(C)c1NC1CCN(c2ncccc2Cl)CC1` [I-186, 2-(4-(3-(1-(3-chloropyridin-2-yl)piperidin-4-ylamino)-2,4,6-trimethylbenzoyl)piperazin-1-yl)pyridine-3-sulfonamide]: the IC50 in assay [1] (Homo sapiens, MCF7, 2 h) was 0.01 to 1 µM; in assay [2] (setting [3]), greater than 10 µM.
For `Cc1cc(C)c(C(=O)N2CCN(c3cccc(F)c3S(N)(=O)=O)CC2)cc1NC1CCN(c2c(F)cc(F)cc2C#N)CC1` [I-187, 2-(4-(5-(1-(2-cyano-4,6-difluorophenyl)piperidin-4-ylamino)-2,4-dimethylbenzoyl)piperazin-1-yl)-6-fluorobenzenesulfonamide], in that order: greater than 10 µM and greater than 10 µM.
On the same counts, the results for `Cc1cc(C)c(C(=O)N2CCN(c3ncccc3S(N)(=O)=O)C[C@@H]2C)c(C)c1NC1CCN(c2ccccc2C#N)CC1` [I-188, (S)-2-(4-(3-(1-(2-cyanophenyl)piperidin-4-ylamino)-2,4,6-trimethylbenzoyl)-3-methylpiperazin-1-yl)pyridine-3-sulfonamide] are 1 to 3 µM and greater than 10 µM.
On the same counts, the results for `Cc1cc(C)c(C(=O)N2CCN(c3cccc(F)c3[S@@](C)(=N)=O)C[C@@H]2C)c(C)c1NC1CCN(c2ccccc2C#N)CC1` [I-189, 2-(4-(3-((S)-4-(3-fluoro-2-((S)-S-methylsulfonimidoyl)phenyl)-2-methylpiperazine-1-carbonyl)-2,4,6-trimethylphenylamino)piperidin-1-yl)benzonitrile] are 0.01 to 1 µM and greater than 10 µM.
Regarding `Cc1cc(C)c(C(=O)N2CCN(c3cccc(F)c3[S@](C)(=N)=O)C[C@@H]2C)c(C)c1NC1CCN(c2ccccc2C#N)CC1` [I-190, 2-(4-(3-((S)-4-(3-fluoro-2-((R)-S-methylsulfonimidoyl)phenyl)-2-methylpiperazine-1-carbonyl)-2,4,6-trimethylphenylamino)piperidin-1-yl)benzonitrile], the IC50 in assay [1] (Homo sapiens, MCF7, 2 h) is 0.01 to 1 µM; in assay [2] (setting [3]), greater than 10 µM.
On the same counts, the results for `Cc1cc(C)c(C(=O)N2CCN(c3ncccc3S(N)(=O)=O)C[C@@H]2C)c(C)c1NC1CCN(c2ccc(F)cc2C#N)CC1` [I-193, (S)-2-(4-(3-(1-(2-cyano-4-fluorophenyl)piperidin-4-ylamino)-2,4,6-trimethylbenzoyl)-3-methylpiperazin-1-yl)pyridine-3-sulfonamide] are 1 to 3 µM and greater than 10 µM.
